Two molecules from paper PMC5018819 (Scientific Reports, 2016) can be followed below.

Structures are written as SMILES.

For the assay, the system named is P. falciparum 3D7. Put plainly: ES-MS and ES-MS-MS lipidomic analysis of treated parasites. Format: cell-based, Plasmodium falciparum. The settings on record: EC90 for 3 h; for effect on level of PC species: parents of 184 m/z spectra; for effect on endogenous PE species (in words): quantitative lipidomic analysis. How it is done:
After washing, P. falciparum trophozoites were cultured for 18h without inhibitors, collected, treated with saponin to release the parasites from the red blood cells, and washed twice with PBS prior to Bligh & Dyer lipid extraction. Briefly, 5 × 10^8 parasite cells were dissolved in 375 μl 1:2 (v/v) chloroform:methanol and vigorously vortexed for 15 min. 125 μl of chloroform were added and 500 pmols of 1,2-dimyristoyl-sn-glycero-3-phosphocholine and 1,2-dipalmitoyl-sn-glycero-3-phosphoethanolamine were included in each sample as internal controls. 125 μl of water were added to the sample, vortexed and centrifuged at ×1000 g (RT) for 5 min to make the sample biphasic. Lower organic phase was collected and upper (aqueous) phase was re-extracted twice with 125 μls of chloroform. Lipid extracts were pooled, dried under nitrogen and stored at 4 °C for ESI-MS/MS analysis.
Lipid extracts, were dissolved in 15 μl of choloroform:methanol (1:2) and 15 μl of acetonitrile:iso-propanol:water (6:7:2) and analysed with a Absceix 4000 QTrap, a triple quadrupole mass spectrometer equipped with a nanoelectrospray source. Samples were delivered using a Nanomate interface in direct infusion mode (~125 nl/min). The lipid extracts were analysed in both positive and negative ion modes using a capillary voltage of 1.25 kV. MS/MS scanning (daughter, precursor and neutral loss scans) were performed using nitrogen as the collision gas with collision energies between 35–90 V. Each spectrum encompasses at least 50 repetitive scans. Tandem mass spectra (MS/MS) were obtained with collision energies between 35–90 V. Assignment of phospholipid and neutral lipid species is based upon a combination of survey, daughter, precursor and neutral loss scans, as well previous assignments. The identity of phospholipid peaks was verified using the LIPID MAPS: Nature Lipidomics Gateway (www.lipidmaps.org).

Turning to `CN(C)c1cc[n+](Cc2ccc(CCCCc3ccc(C[n+]4ccc(N5CCCC5)cc4)cc3)cc2)cc1.[Br-].[Br-]` [BR25], the “effect on level of PC species” value was “do not affect” and the “effect on endogenous PE species (in words)” value is on record as “almost complete loss”.

As for `CN(C)c1cc[n+](Cc2ccc(-c3ccc(C[n+]4ccc(N5CCCC5)cc4)cc3)cc2)cc1.[Br-].[Br-]` [BR23], the “effect on level of PC species” value is given as “do not affect” and the “effect on endogenous PE species (in words)” value was “significant reduction”. The “reduction of endogenous PE species” value (ES-MS-MS parents of 196 m/z, internal PE standard) is recorded as more than 90%.
